Values of other authors as cited in PubChem BioAssay AID1259409 (Chemical Carcinogenesis Research Information System (CCRIS), 2018).
Where a SMILES comes first, the peptide text is derived from it. [ ]: non-standard residue; d: D form. The star is where a group is joined. Sta = CC(C)C[C@H](N)[C@@H](O)CC(=O)O; Isovaleryl = CC(C)CC(=O)*

Tested on: rodent chemically induced tumor inhibition, incidence and multiplicity
Assay: CCRIS tumor inhibitor studies
Conditions: Species: MOUSE

CC(C)Cn1c(=O)n(C)c(=O)c2[nH]cnc21
tumour outcome (control, treated, inhibition, significance) (Carcinogen: 7,12-DIMETHYLBENZ[A]ANTHRACENE, 57-97-6, Dose [Inhibitor]: 5 UMOL 2/WK FOR 48 WK APPLIED AT LEAST 5 MIN BEFORE AND TO SAME AREA OF SKIN AS EACH PROMOTER DOSE, STARTING 2 WK AFTER, Route [Inhibitor]: DERMAL, Strain/Sex: CD-1/FEMALE, Target Tissue: Type of Lesion: SKIN: CARCINOMA, Dose [Carcinogen]: 0.1 UMOL ONCE 2 WK PRIOR TO FIRST DOSE OF INHIBITOR, Promoter: 12-O-TETRADECANOYLPHORBOL-13-ACETATE;16561-29-8): 35%, 19%, 46%, not calculated | tumour outcome (control, treated, inhibition, significance) (Carcinogen: 7,12-DIMETHYLBENZ[A]ANTHRACENE, 57-97-6, Dose [Inhibitor]: 5 UMOL 2/WK FOR 48 WK APPLIED AT LEAST 5 MIN BEFORE AND TO SAME AREA OF SKIN AS EACH PROMOTER DOSE, STARTING 2 WK AFTER, Route [Inhibitor]: DERMAL, Strain/Sex: CD-1/FEMALE, Target Tissue: Type of Lesion: SKIN: PAPILLOMA, Dose [Carcinogen]: 0.1 UMOL ONCE 2 WK PRIOR TO FIRST DOSE OF INHIBITOR, Promoter: 12-O-TETRADECANOYLPHORBOL-13-ACETATE;16561-29-8): 100%, 82%, 18%, not calculated | tumour outcome (control, treated, inhibition, significance) (Carcinogen: 7,12-DIMETHYLBENZ[A]ANTHRACENE, 57-97-6, Dose [Inhibitor]: 5 UMOL APPLIED 2/WK THROUGHOUT THE STUDY AT LEAST 5 MIN BEFORE AND TO SAME AREA OF SKIN AS EACH DOSE OF PROMOTER STARTIN, Route [Inhibitor]: DERMAL, Strain/Sex: CD-1/FEMALE, Target Tissue: Type of Lesion: SKIN: CARCINOMA, Dose [Carcinogen]: 0.1 UMOL APPLIED ONCE, Promoter: 12-O-TETRADECANOYLPHORBOL-13-ACETATE, 16561-29-8): 35%, 19%, 46%, not calculated | tumour outcome (control, treated, inhibition, significance) (Carcinogen: 7,12-DIMETHYLBENZ[A]ANTHRACENE, 57-97-6, Dose [Inhibitor]: 5 UMOL APPLIED 2/WK THROUGHOUT THE STUDY AT LEAST 5 MIN BEFORE AND TO SAME AREA OF SKIN AS EACH DOSE OF PROMOTER STARTIN, Route [Inhibitor]: DERMAL, Strain/Sex: CD-1/FEMALE, Target Tissue: Type of Lesion: SKIN: PAPILLOMA, Dose [Carcinogen]: 0.1 UMOL APPLIED ONCE, Promoter: 12-O-TETRADECANOYLPHORBOL-13-ACETATE, 16561-29-8): 100%, 82%, 18%, not calculated | tumour outcome (control, treated, inhibition, significance) (Carcinogen: 7,12-DIMETHYLBENZ[A]ANTHRACENE, 57-97-6, Dose [Inhibitor]: 10 UMOL 1/WK FOR 30 WK APPLIED AT LEAST 5 MIN PRIOR TO EACH CARCINOGEN TREATMENT (STUDY DURATION: 30 WK), Route [Inhibitor]: DERMAL, Strain/Sex: CD-1/FEMALE, Target Tissue: Type of Lesion: SKIN: CARCINOMA, Dose [Carcinogen]: 0.2 UMOL 1/WK FOR 30 WK, Promoter: NONE USED): 59%, 42%, 29%, not significant | tumour outcome (control, treated, inhibition, significance) (Carcinogen: 7,12-DIMETHYLBENZ[A]ANTHRACENE, 57-97-6, Dose [Inhibitor]: 10 UMOL 1/WK FOR 30 WK APPLIED AT LEAST 5 MIN PRIOR TO EACH CARCINOGEN TREATMENT (STUDY DURATION: 30 WK), Route [Inhibitor]: DERMAL, Strain/Sex: CD-1/FEMALE, Target Tissue: Type of Lesion: SKIN: PAPILLOMA, Dose [Carcinogen]: 0.2 UMOL ONCE 1/WK FOR 30 WK, Promoter: NONE USED): 100%, 100%, 0%, not significant | tumour outcome (control, treated, inhibition, significance) (Carcinogen: 7,12-DIMETHYLBENZ[A]ANTHRACENE, 57-97-6, Dose [Inhibitor]: 10 UMOL APPLIED 1/WK THROUGHOUT THE STUDY AT LEAST 5 MIN BEFORE AND TO SAME AREA OF SKIN AS EACH APPLICATION OF CARCINOG, Route [Inhibitor]: DERMAL, Strain/Sex: CD-1/FEMALE, Target Tissue: Type of Lesion: SKIN: CARCINOMA, Dose [Carcinogen]: 0.2 UMOL 1/WK FOR 30 WK, Promoter: NONE USED): 59%, 42%, 29%, not significant | tumour outcome (control, treated, inhibition, significance) (Carcinogen: 7,12-DIMETHYLBENZ[A]ANTHRACENE, 57-97-6, Dose [Inhibitor]: 10 UMOL APPLIED 1/WK THROUGHOUT THE STUDY AT LEAST 5 MIN BEFORE AND TO SAME AREA OF SKIN AS EACH APPLICATION OF CARCINOG, Route [Inhibitor]: DERMAL, Strain/Sex: CD-1/FEMALE, Target Tissue: Type of Lesion: SKIN: PAPILLOMA, Dose [Carcinogen]: 0.2 UMOL 1/WK FOR 30 WK, Promoter: NONE USED): 100%, 100%, 0%, not significant | outcome (Carcinogen: 7,12-DIMETHYLBENZ[A]ANTHRACENE, 57-97-6, Dose [Inhibitor]: 10 UMOL APPLIED ONCE AT LEAST 5 MIN PRIOR TO CARCINOGEN DOSE (STUDY DURATION: 34 WK), Route [Inhibitor]: DERMAL, Strain/Sex: CD-1/FEMALE, Target Tissue: Type of Lesion: SKIN: CARCINOMA, Dose [Carcinogen]: 3.6 UMOL ONCE, Promoter: NONE USED): 0%, 4%, not calculated

CC(O)CCC(=O)c1ccccc1 (stereo unspecified)
tumour outcome (control, treated, inhibition, significance) (Carcinogen: 4-(METHYLNITROSAMINO)-1-(3-PYRIDYL)-1-BUTANONE, 64091-91-4, Dose [Inhibitor]: 0, 25 UMOL IN 0.1 ML CORN OIL ONCE 2 HR PRIOR TO CARCINOGEN DOSE (STUDY DURATION: 16 WK), Route [Inhibitor]: GAVAGE, Strain/Sex: STRAIN-A/FEMALE, Target Tissue: Type of Lesion: LUNG: ADENOMA, Dose [Carcinogen]: 10 UMOL IN 0.1 ML SALINE ONCE, Promoter: NONE USED): 100%, 95%, 5%, not significant | tumour outcome (control, treated, inhibition, significance) (Carcinogen: 4-(METHYLNITROSAMINO)-1-(3-PYRIDYL)-1-BUTANONE, 64091-91-4, Dose [Inhibitor]: 0, 25 UMOL IN 0.1 ML CORN OIL ONCE 2 HR PRIOR TO CARCINOGEN DOSE (STUDY DURATION: 16 WK), Route [Inhibitor]: GAVAGE, Strain/Sex: STRAIN-A/FEMALE, Target Tissue: Type of Lesion: LUNG: TUMOR, Dose [Carcinogen]: 10 UMOL IN 0.1 ML SALINE ONCE, Promoter: NONE USED): 100%, 100%, 0%, not significant

CCOC(=O)Oc1ccc(/C=C/C=C/C(=O)NCCN2CCC(OC(c3ccccc3)c3ccccc3)CC2)cc1OC
tumour outcome (control, treated, inhibition, significance) (Carcinogen: 7,12-DIMETHYLBENZ[A]ANTHRACENE, 57-97-6, Dose [Inhibitor]: 0, 30 MG/KG IN 5% TWEEN 80 ADMINISTERED 30 MIN PRIOR TO EACH PROMOTER DOSE 2/WK FOR 22 WK (STUDY DURATION: 25 WK), Route [Inhibitor]: ORAL, Strain/Sex: CD-1/FEMALE, Target Tissue: Type of Lesion: SKIN: TUMOR, Dose [Carcinogen]: 200 NMOL ONCE, Promoter: 12-O-TETRADECANOYL-13-ACETATE, 16561-29-8): 100%, 55%, 45%, p<0.05 | tumour outcome (control, treated, inhibition, significance) (Carcinogen: 7,12-DIMETHYLBENZ[A]ANTHRACENE, 57-97-6, Dose [Inhibitor]: 0, 30 MG/KG IN 5% TWEEN 80 ADMINISTERED 30 MIN PRIOR TO EACH PROMOTER DOSE 2/WK FOR 22 WK (STUDY DURATION: 25 WK), Route [Inhibitor]: ORAL, Strain/Sex: CD-1/FEMALE, Target Tissue: Type of Lesion: SKIN: TUMOR, Dose [Carcinogen]: 200 NMOL ONCE, Promoter: ANTHRALIN, 1143-38-0): 92%, 35%, 62%, p<0.05 | tumour outcome (control, treated, inhibition, significance) (Carcinogen: BENZO[A]PYRENE, 50-32-8, Dose [Inhibitor]: 0, 30 MG/KG IN 5% TWEEN 80 1/WK FOR 22 WK ADMINISTERED 30 MIN PRIOR TO EACH CARCINOGEN DOSE (STUDY DURATION: 22 WK), Route [Inhibitor]: ORAL, Strain/Sex: CD-1/FEMALE, Target Tissue: Type of Lesion: SKIN: TUMOR, Dose [Carcinogen]: 200 NMOL 1/WK FOR 22 WK, Promoter: NONE USED): 100%, 50%, 50%, p<0.05

CC(C)CC(=O)N[C@H](C(=O)N[C@H](C(=O)N[C@@H](CC(C)C)[C@@H](O)CC(=O)N[C@@H](C)C(=O)N[C@@H](CC(C)C)[C@@H](O)CC(=O)O)C(C)C)C(C)C (Isovaleryl-VV[Sta]A[Sta]-OH)
tumour outcome (control, treated, inhibition, significance) (Carcinogen: 1,2,3,4,5,6-HEXACHLOROCYCLOHEXANE, 319-84-6, Dose [Inhibitor]: 0.1% IN DIET FOR 12 WK FOLLOWING CARCINOGEN TREATMENT REGIMEN (STUDY DURATION: 48 WK), Route [Inhibitor]: ORAL, Strain/Sex: DDY/MALE, Target Tissue: Type of Lesion: LIVER: NODULAR HYPERPLASIA, Dose [Carcinogen]: 500 PPM IN DIET FOR 24 WK, Promoter: NONE USED): 1/13 (8%), 1/12 (8%), 0%, not significant | tumour outcome (control, treated, inhibition, significance) (Carcinogen: N-BUTYL-N-(4-HYDROXY-BUTYL)NITROSAMINE, 3817-11-6, Dose [Inhibitor]: 0.1% IN DIET FOR 32 WK FOLLOWING CARCINOGEN TREATMENT REGIMEN (STUDY DURATION: 40 WK), Route [Inhibitor]: ORAL, Strain/Sex: ICR/MALE, Target Tissue: Type of Lesion: URINARY BLADDER: TUMOR, Dose [Carcinogen]: 0.05% IN DRINKING WATER FOR FIRST 8 WK, Promoter: NONE USED): 6/13 (46%), 8/10 (80%), -74%, not calculated
